Reference: patent US20240254118A1, “PRMT5 INHIBITORS AND USES THEREOF” (Gilead Sciences, Inc., priority 2022, published 2024)

What was measured:
[1] = tested on: HCT116 MTAP-deleted cells; assay: Cell viability assay (CellTiter-Glo, 7 days), HCT116 MTAP-deleted; conditions: Homo sapiens, HCT-116, 168 h
[2] = tested on: SDMA signal (PRMT5 inhibition) in HCT116 MTAP-deleted cells; assay: Symmetric di-methyl arginine image-based high content screen assay (SDMA assay), HCT116 MTAP-deleted; type: cell-based; conditions: SDMA assay; for EC50: Homo sapiens, HCT-116, 72 h, 3 days of treatment, cell line not given, taken as HCT116 MTAP-deleted, read-out: EC50 (SDMA assay); for EC50 selectivity (SDMA assay): taken as HCT116 WT versus MTAP-deleted
How it was run: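 Read-out: per-cell mean SDMA immunofluorescence (Alexa Fluor 488 secondary), cells segmented by DAPI on a high-content imager. Compound exposure in HCT116 MTAP-deleted cells lasted until fixation on Day 3; overnight 4° C primary anti-SDMA antibody staining.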

With `CN(C(=O)C1CC1)N(Cc1ccc(C#CC2CCCO2)cc1F)C(=O)c1ccc2nc(N)c3cnn(C)c3c2c1` (stereo not drawn) [Example 391, 4-amino-N′-(cyclopropanecarbonyl)-N-(2-fluoro-4-((tetrahydrofuran-2-yl)ethynyl)benzyl)-N′,1-dimethyl-1H-pyrazolo[4,3-c]quinoline-8-carbohydrazide] the CC50 [1] was under 100 nM, the EC50 [2] was 1 to 5 nM and the “EC50 selectivity (SDMA assay)” value [2] was 64.
In the case of `Cn1ncc2c(N)nc3ccc(C(=O)N(Cc4nc5ccccc5n4C)N4CCCC4=O)cc3c21` [Example 80, 4-Amino-1-methyl-N-[(1-methylbenzimidazol-2-yl)methyl]-N-(2-oxopyrrolidin-1-yl)pyrazolo[4,3-c]quinoline-8-carboxamide], the CC50 [1] is reported as under 100 nM, the EC50 [2] is reported as under 1 nM and the “EC50 selectivity (SDMA assay)” value [2] is reported as 164.
For `CC(=O)N(C)N(Cc1ccc(C#CC(C)(C)S(C)(=O)=O)cc1F)C(=O)c1ccc2nc(N)c3cnn(C)c3c2c1` [Example 176, N′-acetyl-4-amino-N-(2-fluoro-4-(3-methyl-3-(methylsulfonyl)but-1-yn-1-yl)benzyl)-N′,1-dimethyl-1H-pyrazolo[4,3-c]quinoline-8-carbohydrazide], the CC50 [1] was 100 to 1000 nM, the EC50 [2] was 1 to 5 nM and the “EC50 selectivity (SDMA assay)” value [2] was 35.
In the case of `CC(=O)N(C)N(Cc1ccc(-c2cnn(C(F)F)c2)cc1F)C(=O)c1ccc2nc(N)c3cnn(C)c3c2c1` [Example 242, N′-acetyl-4-amino-N-(4-(1-(difluoromethyl)-1H-pyrazol-4-yl)-2-fluorobenzyl)-N′,1-dimethyl-1H-pyrazolo[4,3-c]quinoline-8-carbohydrazide], the CC50 [1] is reported as under 100 nM, the EC50 [2] is reported as under 1 nM and the “EC50 selectivity (SDMA assay)” value [2] is reported as 77.
For `CCOC(=O)NN(Cc1ccc(C(F)(F)F)cn1)C(=O)c1ccc2nc(N)c3cnn(C)c3c2c1` [Example 45, ethyl N-[(4-amino-1-methyl-pyrazolo[4,3-c]quinoline-8-carbonyl)-[[5-(trifluoromethyl)-2-pyridyl]methyl]amino]carbamate], the CC50 [1] was under 100 nM, the EC50 [2] was under 1 nM and the “EC50 selectivity (SDMA assay)” value [2] was 63.
For `COCCN(C)N(Cc1ccc(C(F)(F)F)cc1F)C(=O)c1cc2c(cc1F)nc(N)c1cnn(C)c12` [Example 395, 4-amino-7-fluoro-N-(2-fluoro-4-(trifluoromethyl)benzyl)-N′-(2-methoxyethyl)-N′,1-dimethyl-1H-pyrazolo[4,3-c]quinoline-8-carbohydrazide], the CC50 [1] was under 100 nM, the EC50 [2] was 1 to 5 nM and the “EC50 selectivity (SDMA assay)” value [2] was 33.
With `CN(C(=O)C1CC1)N(Cc1ccc2nc(C(F)(F)F)sc2c1)C(=O)c1ccc2nc(N)c3cnn(C)c3c2c1` [Example 323, 4-amino-N′-(cyclopropanecarbonyl)-N′,1-dimethyl-N-((2-(trifluoromethyl)benzo[d]thiazol-6-yl)methyl)-1H-pyrazolo[4,3-c]quinoline-8-carbohydrazide] the CC50 [1] was under 100 nM, the EC50 [2] was 1 to 5 nM and the “EC50 selectivity (SDMA assay)” value [2] was 44.
`CC(=O)N(C)N(Cc1ccc(C(F)(F)F)cn1)C(=O)c1ccc2nc(N)c3ccccc3c2c1` [Example 68, N′-acetyl-6-amino-N′-methyl-N-[[5-(trifluoromethyl)-2-pyridyl]methyl]phenanthridine-2-carbohydrazide] was tested, and the CC50 [1] was 100 to 1000 nM, the EC50 [2] was 1 to 5 nM and the “EC50 selectivity (SDMA assay)” value [2] was 304.
With `CC(=O)N(C)N(Cc1ccccc1F)C(=O)c1cc2c(cc1F)nc(N)c1cnn(C)c12` [Example 182, N′-acetyl-4-amino-7-fluoro-N-(2-fluorobenzyl)-N′,1-dimethyl-1H-pyrazolo[4,3-c]quinoline-8-carbohydrazide] the CC50 [1] was under 100 nM, the EC50 [2] was under 1 nM and the “EC50 selectivity (SDMA assay)” value [2] was 209.
`Cn1ncc2c(N)nc3ccc(C(=O)N(Cc4csc(C(F)(F)F)n4)N4CCCOC4=O)cc3c21` [Example 136, 4-amino-1-methyl-N-(2-oxo-1,3-oxazinan-3-yl)-N-((2-(trifluoromethyl)thiazol-4-yl)methyl)-1H-pyrazolo[4,3-c]quinoline-8-carboxamide] was tested, and the CC50 [1] was 100 to 1000 nM, the EC50 [2] was 1 to 5 nM and the “EC50 selectivity (SDMA assay)” value [2] was 724.
For `CC(=O)N(C)N(Cc1cc2ccccc2s1)C(=O)c1ccc2nc(N)c3cnn(C)c3c2c1` [Example 213, N′-Acetyl-4-amino-N-(benzothiophen-2-ylmethyl)-N′,1-dimethyl-pyrazolo[4,3-c]quinoline-8-carbohydrazide], the CC50 [1] was under 100 nM, the EC50 [2] was under 1 nM and the “EC50 selectivity (SDMA assay)” value [2] was 209.
For `Cn1ncc2c(N)nc3ccc(C(=O)N(Cc4ccc(C(F)(F)F)cn4)N4C[C@H]5C[C@@H]4CO5)cc3c21` [Example 299, 4-amino-N-((1R,4R)-2-oxa-5-azabicyclo[2.2.1]heptan-5-yl)-1-methyl-N-((5-(trifluoromethyl)pyridin-2-yl)methyl)-1H-pyrazolo[4,3-c]quinoline-8-carboxamide], the CC50 [1] was under 100 nM, the EC50 [2] was under 1 nM and the “EC50 selectivity (SDMA assay)” value [2] was 144.
`Cn1ncc2c(N)nc3ccc(C(=O)N(Cc4nc5ccccc5s4)N4CCCC4=O)cc3c21` [Example 65, 4-amino-N-(1,3-benzothiazol-2-ylmethyl)-1-methyl-N-(2-oxopyrrolidin-1-yl)pyrazolo[4,3-c]quinoline-8-carboxamide] was tested, and the CC50 [1] was under 100 nM, the EC50 [2] was under 1 nM and the “EC50 selectivity (SDMA assay)” value [2] was 149.
With `CCC(=O)N(CC)N(Cc1ccc(C(F)(F)F)cn1)C(=O)c1ccc2nc(N)c3cnn(C)c3c2c1` [Example 287, 4-amino-N′-ethyl-1-methyl-N′-propionyl-N-((5-(trifluoromethyl)pyridin-2-yl)methyl)-1H-pyrazolo[4,3-c]quinoline-8-carbohydrazide] the CC50 [1] was under 100 nM, the EC50 [2] was 1 to 5 nM and the “EC50 selectivity (SDMA assay)” value [2] was 174.
In the case of `Cn1ncc2c(N)nc3cc(F)c(C(=O)N(Cc4ccccc4F)N4CCCC4=O)cc3c21` [Example 55, 4-amino-7-fluoro-N-(2-fluorobenzyl)-1-methyl-N-(2-oxopyrrolidin-1-yl)-1H-pyrazolo[4,3-c]quinoline-8-carboxamide], the CC50 [1] is reported as under 100 nM, the EC50 [2] is reported as under 1 nM and the “EC50 selectivity (SDMA assay)” value [2] is reported as 168.
`Cn1ncc2c(N)nc3ccc(C(=O)N(Cc4ccc(C(F)(F)F)cn4)N4CC5(CC5)CC4=O)cc3c21` [Example 170, 4-amino-1-methyl-N-(6-oxo-5-azaspiro[2.4]heptan-5-yl)-N-((5-(trifluoromethyl)pyridin-2-yl)methyl)-1H-pyrazolo[4,3-c]quinoline-8-carboxamide] was tested, and the CC50 [1] was under 100 nM, the EC50 [2] was under 1 nM and the “EC50 selectivity (SDMA assay)” value [2] was 146.
In the case of `Cn1ncc2c(N)nc3cc(F)c(C(=O)N(Cc4ccc(C(F)(F)F)cn4)n4ccc5cccnc54)cc3c21` [Example 296, 4-amino-7-fluoro-1-methyl-N-(1H-pyrrolo[2,3-b]pyridin-1-yl)-N-((5-(trifluoromethyl)pyridin-2-yl)methyl)-1H-pyrazolo[4,3-c]quinoline-8-carboxamide], the CC50 [1] is reported as under 100 nM, the EC50 [2] is reported as under 1 nM and the “EC50 selectivity (SDMA assay)” value [2] is reported as 27.
With `C[C@@H]1CN(N(Cc2ccc(C(F)(F)F)cn2)C(=O)c2ccc3nc(N)c4cnn(C)c4c3c2)C(=O)O1` (single isomer, unassigned) [Example 9] the CC50 [1] was under 100 nM, the EC50 [2] was under 1 nM and the “EC50 selectivity (SDMA assay)” value [2] was 180.
With `CN(C(=O)C1(C#N)CCC1)N(Cc1ccc(C(F)(F)F)cn1)C(=O)c1ccc2nc(N)c3cnn(C)c3c2c1` [Example 192, 4-amino-N′-(1-cyanocyclobutanecarbonyl)-N′,1-dimethyl-N-[[5-(trifluoromethyl)-2-pyridyl]methyl]pyrazolo[4,3-c]quinoline-8-carbohydrazide] the CC50 [1] was 100 to 1000 nM, the EC50 [2] was 1 to 5 nM and the “EC50 selectivity (SDMA assay)” value [2] was 185.
